Measured values: ChEMBL document CHEMBL3868595, “Plazomicin is effective in a non-human primate pneumonic plague model” (Bioorg Med Chem, 2016)

Key:
African green monkey [1] = experiment: Toxicity in African green monkey 7337 model infected with Yersinia pestis Colorado 92 assessed as serum creatinine level at 25 mg/kg, iv administered within 6 hrs post onset of sustained fever as 30 mins infusion for 10 days (reference value: 0.7 mg/dl); assay type: organism-based; settings: chlorocebus sabaeus, in vivo
Yersinia pestis [2] = experiment: (§1) Antibacterial activity against Yersinia pestis Colorado 92 infected in African green monkey B6436 model assessed as bacterial burden in liver at 25 mg/kg, iv administered within 6 hrs post onset of sustained fever as 30 mins infusion for 5 days (reference value: 5.2 10^8CFU/g); assay type: functional, organism-based; settings: CO92
African green monkey [3] = experiment: Toxicity in African green monkey 7972 model infected with Yersinia pestis Colorado 92 assessed as serum creatinine level at 25 mg/kg, iv administered within 6 hrs post onset of sustained fever as 30 mins infusion for 10 days (reference value: 0.8 mg/dl); assay type: organism-based; settings: chlorocebus sabaeus, in vivo
Yersinia pestis [4] = experiment: (§2) Antibacterial activity against Yersinia pestis Colorado 92 infected in African green monkey 8047 model assessed as bacterial burden in lung at 6.25 mg/kg, iv administered within 6 hrs post onset of sustained fever as 30 mins infusion for 10 days (reference value: 7.7 10^8CFU/g); assay type: functional, CO92
Yersinia pestis [5] = experiment: as §2, with “B6960” for “8047”, “tracheobronchial lymph nodes” for “lung”, “5” for “10”, “10^9CFU/g)” for “10^8CFU/g)”; assay type: functional, CO92, Lymph node
[6] = Toxicity in African green monkey 7929 model infected with Yersinia pestis Colorado 92 assessed as total white blood cell count at 25 mg/kg, iv administered within 6 hrs post onset of sustained fever as 30 mins infusion for 10 days (reference value: 10.9 10^3/microL); assay type: organism-based; settings: chlorocebus aethiops, in vivo
Yersinia pestis [7] = experiment: as §1, with “B6783” for “B6436”, “tracheobronchial lymph nodes” for “liver”, “12.5” for “25”, “7.7 10^9CFU/g)” for “5.2 10^8CFU/g)”; assay type: functional, CO92, Lymph node
African green monkey [8] = experiment: Toxicity in African green monkey B6408 model infected with Yersinia pestis Colorado 92 assessed as serum lactate dehydrogenase level at 25 mg/kg, iv administered within 6 hrs post onset of sustained fever as 30 mins infusion for 10 days (reference value: 249 IU/L); assay type: organism-based; settings: chlorocebus sabaeus, in vivo
[9] = Clearance in African green monkey blood at 25 mg/kg administered as iv infusion twice daily for 7 consecutive days measured on day 7 by LC-MS/MS analysis; assay type: ADME, organism-based; settings: chlorocebus aethiops
Yersinia pestis [10] = experiment: Antibacterial activity against Yersinia pestis Colorado 92 infected in African green monkey B6960 model assessed as bacterial burden in liver at 6.25 mg/kg, iv administered within 6 hrs post onset of sustained fever as 30 mins infusion for 5 days (reference value: 5.2 10^8CFU/g); assay type: functional, CO92
Yersinia pestis [11] = experiment: Antibacterial activity against Yersinia pestis Colorado 92 infected in African green monkey B6469 model assessed as bacterial burden in liver at 25 mg/kg, iv administered within 6 hrs post onset of sustained fever as 30 mins infusion for 5 days (reference value: 5.2 10^8CFU/g); assay type: functional, organism-based; settings: CO92
African green monkey [12] = experiment: Toxicity in African green monkey 7643 model infected with Yersinia pestis Colorado 92 assessed as serum gamma glutamyl-transferase level at 25 mg/kg, iv administered within 6 hrs post onset of sustained fever as 30 mins infusion for 10 days (reference value: 44 IU/L); assay type: organism-based; settings: chlorocebus sabaeus, in vivo
Yersinia pestis [13] = experiment: Antibacterial activity against Yersinia pestis Colorado 92 infected in African green monkey C2149 model assessed as bacterial burden in liver at 6.25 mg/kg, iv administered within 6 hrs post onset of sustained fever as 30 mins infusion for 5 days (reference value: 5.2 10^8CFU/g); assay type: functional, CO92
Yersinia pestis [14] = experiment: (§3) Antibacterial activity against Yersinia pestis Colorado 92 infected in African green monkey C2083 model assessed as bacterial burden in kidney at 12.5 mg/kg, iv administered within 6 hrs post onset of sustained fever as 30 mins infusion for 5 days (reference value: 7.1 10^7CFU/g); assay type: functional, CO92
Yersinia pestis [15] = experiment: Antibacterial activity against Yersinia pestis Colorado 92 infected in African green monkey B6873 model assessed as bacterial burden in blood at 12.5 mg/kg, iv administered within 6 hrs post onset of sustained fever as 30 mins infusion for 5 days (reference value: 1.2 10^7CFU/ml); assay type: functional, organism-based; settings: CO92
Yersinia pestis [16] = experiment: as §3, with “B6672” for “C2083”, “tracheobronchial lymph nodes” for “kidney”, “7.7 10^9CFU/g)” for “7.1 10^7CFU/g)”; assay type: functional, CO92, Lymph node
Yersinia pestis [17] = experiment: Antibacterial activity against Yersinia pestis Colorado 92 infected in African green monkey B6106 model assessed as bacterial burden in brain at 25 mg/kg, iv administered within 6 hrs post onset of sustained fever as 30 mins infusion for 5 days (reference value: 1.9 10^6CFU/g); assay type: functional, CO92
[18] = Volume of distribution at steady state in African green monkey blood at 25 mg/kg administered as iv infusion twice daily for 7 consecutive days measured on day 1 by LC-MS/MS analysis; assay type: ADME, organism-based; settings: chlorocebus aethiops, read-out: Vdss
African green monkey [19] = experiment: Toxicity in African green monkey B6127 model infected with Yersinia pestis Colorado 92 assessed as effect on serum electrolyte abnormality at 25 mg/kg, iv administered within 6 hrs post onset of sustained fever as 30 mins infusion for 10 days; assay type: organism-based; settings: chlorocebus sabaeus, in vivo
Yersinia pestis [20] = experiment: Antibacterial activity against Yersinia pestis Colorado 92 infected in African green monkey B6436 model assessed as bacterial burden in blood at 25 mg/kg, iv administered within 6 hrs post onset of sustained fever as 30 mins infusion for 5 days (reference value: 1.2 10^7CFU/ml); assay type: functional, organism-based; settings: CO92
[21] = Elimination half life in African green monkey blood at 25 mg/kg administered as iv infusion twice daily for 7 consecutive days measured on day 1 by LC-MS/MS analysis; assay type: ADME, organism-based; settings: chlorocebus aethiops, read-out: beta t1/2 (converted)
African green monkey [22] = experiment: Toxicity in African green monkey B6291 model infected with Yersinia pestis Colorado 92 assessed as serum gamma glutamyl-transferase level at 25 mg/kg, iv administered within 6 hrs post onset of sustained fever as 30 mins infusion for 10 days (reference value: 77 IU/L); assay type: organism-based; settings: chlorocebus sabaeus, in vivo
African green monkey [23] = experiment: Toxicity in African green monkey 7653 model infected with Yersinia pestis Colorado 92 assessed as serum creatinine level at 25 mg/kg, iv administered within 6 hrs post onset of sustained fever as 30 mins infusion for 10 days (reference value: 0.6 mg/dl); assay type: organism-based; settings: chlorocebus sabaeus, in vivo
Yersinia pestis [24] = experiment: Antibacterial activity against Yersinia pestis Colorado 92 infected in African green monkey B6872 model assessed as bacterial burden in brain at 25 mg/kg, iv administered within 6 hrs post onset of sustained fever as 30 mins infusion for 5 days (reference value: 1.9 10^6CFU/g); assay type: functional, CO92
Yersinia pestis [25] = experiment: Antibacterial activity against Yersinia pestis Colorado 92 infected in African green monkey B6960 model assessed as bacterial burden in kidney at 6.25 mg/kg, iv administered within 6 hrs post onset of sustained fever as 30 mins infusion for 5 days (reference value: 7.1 10^7CFU/g); assay type: functional, CO92
Yersinia pestis [26] = experiment: Antibacterial activity against Yersinia pestis Colorado 92 infected in African green monkey B6672 model assessed as bacterial burden in liver at 12.5 mg/kg, iv administered within 6 hrs post onset of sustained fever as 30 mins infusion for 5 days (reference value: 5.2 10^8CFU/g); assay type: functional, CO92

CN[C@@H]1[C@@H](O)[C@@H](O[C@@H]2[C@@H](O)[C@H](O[C@H]3OC(CNCCO)=CC[C@H]3N)[C@@H](N)C[C@H]2NC(=O)[C@@H](O)CCN)OC[C@]1(C)O [PLAZOMICIN]
Activity (African green monkey [1]): 0.5 mg/dL
Activity (Yersinia pestis [2]): Below limit of detection
Activity (African green monkey [3]): 0.7 mg/dL
Activity (Yersinia pestis [4]): 6.6 ×10⁹ CFU/g
Activity (Yersinia pestis [5]): 1.6 ×10⁷ CFU/g
Activity [6]: 8.5 ×10³ /uL
Activity (Yersinia pestis [7]): 6.3 ×10⁹ CFU/g
Activity (African green monkey [8]): 304 IU/L
clearance [9]: 1.83 mL/min/kg
Activity (Yersinia pestis [10]): 38 CFU/g
Activity (Yersinia pestis [11]): Below limit of detection
Activity (African green monkey [12]): 35 IU/L
Activity (Yersinia pestis [13]): 1 ×10⁶ CFU/g
Activity (Yersinia pestis [14]): 3.1 ×10⁶ CFU/g
Activity (Yersinia pestis [15]): Below limit of detection
Activity (Yersinia pestis [16]): 8.3 ×10⁶ CFU/g
Activity (Yersinia pestis [17]): 6.4 ×10⁷ CFU/g
Vd [18]: 0.33 L/kg
Activity (African green monkey [19]): Toxic
Activity (Yersinia pestis [20]): Below limit of detection
half-life [21]: 1.8 h
Activity (African green monkey [22]): 102 IU/L
Activity (African green monkey [23]): 0.8 mg/dL
Activity (Yersinia pestis [24]): 4.1 ×10⁶ CFU/g
Activity (Yersinia pestis [25]): 72 CFU/g
Activity (Yersinia pestis [26]): 76 CFU/g
